{
  "source": "patent US20190208766A1",
  "about": "“COMPOSITION FOR THE CONSERVATION/FIXATION OF BIOLOGICAL MATERIAL” (priority 2016, published 2019)",
  "origin": "cited, not measured here",
  "system": "airways",
  "conditions": "in vivo",
  "data": [
    {"smiles": "C=O", "note": "[formaldehyde]", "values": [
      {"measurement": "concentration causing sense of suffocation", "result": "greater than 10 ppm"},
      {"measurement": "exposure that can lead to pulmonary edema", "result": "greater than 20 ppm"}
    ]}
  ]
}
